Assay results published in patent US12649723B2, “Carbonohydrazonoyl dicyanide compounds comprising 2 or more aryl or heteroaryl connected via linker and use thereof” (KOREA INSTITUTE OF SCIENCE AND TECHNOLOGY, priority 2020, dated 2026).

Tests used:
tau protein = molecular target: T1, tau protein (Homo sapiens, UniProt P10636); assay: Tau-BiFC cell model: inhibition of tau protein aggregation; type: cell-based; conditions: for remaining activity at 3 µM: 48 h, compounds marked *: measured at 3 μM, Forskolin-only group = 100% tau protein-aggregated state, read-out: Response; for IC50: Tau BiFC in cells, with Forskolin 30 μM, 48 hours
T1 construct: fused on or other part: Split fluorescent-protein halves for BiFC are fused to tau; In the published tau-BiFC line these are Venus VN173 and VC155
Method in brief: (§1)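 Aggregation was induced by 30 μM Forskolin co-applied with test compound for 48 h, with screening at 1, 3, 10 μM and dose-response at 0.03–30 μM. Nuclei were stained with Hoechst (2 μg/mL) and counted against Forskolin-only wells for cytotoxicity. Inhibition came from BiFC fluorescence relative to Forskolin-only versus untreated cells, with IC50 by nonlinear regression.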

Tau-BiFC cells = assay: Cell viability (cytotoxicity) in tau-BiFC cells, count of stained nuclei; type: cell-based; conditions: compounds marked *: measured at 3 μM; Forskolin-only group = 100% cell viability
Method in brief: as §1

[1] = Liver microsome stability; type: in vitro ADME, human; conditions: amount of substrate remaining; compound 1 μM, 30 minutes, 37° C., NADPH
Method: (§2) The stability of liver microsomes due to the compounds prepared according to Examples 1 to 175 was confirmed. Specifically, four types of liver microsomes (human, dog, rat, and mouse, each 0.25 mg/mL), a 0.1 M phosphate buffer solution (pH 7.4), and each of the compounds at a concentration of 1 μM were mixed and pre-cultured at 37° C. for 5 minutes and further cultured at 37° C. for 30 minutes together with an NADPH generation system solution added thereto. Thereafter, the reaction was terminated by adding an acetonitrile solution containing an internal standard material (chloropropamide) and centrifuged for 5 minutes (14,000 rpm, 4° C.), and then a supernatant was injected into an LC-MS/MS system for analysis of substrate drugs to thereby evaluate metabolic stability due to 8 types of compounds.
(§3) The amount of the substrate remaining after the reaction was analyzed using the Shimadzu Nexera XR system and TSQ Vantage (Thermo). In an HPLC column, Kinetex XB-C18 (2.1 mm×100 mm, particle size of 2.6 μm; Phenomenex, USA) was used, and mobile phases were (A) distilled water containing 0.1% formic acid and (B) acetonitrile containing 0.1% formic acid. Analyst software (version 1.6.3) and Xcalibur (version 1.6.1) were used for data analysis.

[2] = Liver microsome stability; type: in vitro ADME, rat; conditions: amount of substrate remaining; compound 1 μM, 30 minutes, 37° C., NADPH
Method: as §2, §3

[3] = Liver microsome stability; type: in vitro ADME, mouse; conditions: amount of substrate remaining; compound 1 μM, 30 minutes, 37° C., NADPH
Method: as §2, §3

T1 sequence (P10636 2-441 isoform P10636-8 limits assumed): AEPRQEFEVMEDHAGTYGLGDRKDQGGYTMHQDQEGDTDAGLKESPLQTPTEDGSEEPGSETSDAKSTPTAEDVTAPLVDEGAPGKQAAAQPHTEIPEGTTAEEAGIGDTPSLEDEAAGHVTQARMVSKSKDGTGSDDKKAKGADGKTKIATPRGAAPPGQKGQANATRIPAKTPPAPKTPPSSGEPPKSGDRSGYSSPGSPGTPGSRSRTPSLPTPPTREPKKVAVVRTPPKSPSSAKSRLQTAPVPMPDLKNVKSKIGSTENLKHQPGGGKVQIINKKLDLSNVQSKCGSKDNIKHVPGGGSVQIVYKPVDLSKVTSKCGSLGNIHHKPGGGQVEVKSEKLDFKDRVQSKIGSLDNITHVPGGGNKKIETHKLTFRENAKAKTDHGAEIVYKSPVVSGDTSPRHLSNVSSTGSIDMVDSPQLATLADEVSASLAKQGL

| Structure (SMILES) | remaining activity at 3 µM (tau protein) | IC50 (tau protein) | Cell viability (Tau-BiFC cells) | Human (%) [1] | Rat (%) [2] | Mouse (%) [3] |
| --- | --- | --- | --- | --- | --- | --- |
| Cc1cc(NN=C(C#N)C#N)ccc1OCc1cccnn1 [Compound 149, (3-methyl-4-(pyridazin-3-ylmethoxy)phenyl)carbonohydrazonoyl dicyanide] | -8% | 185 nM | 124% | 93.7% | 82.2% | 87.9% |
| Cc1cc(NN=C(C#N)C#N)ccc1OCc1cc2ccccc2s1 [Compound 150, (4-(benzo[b]thiophen-2-ylmethoxy)-3-methylphenyl)carbonohydrazonoyl dicyanide] | 11% | – | 118% | 80.7% | 78.7% | 99.5% |
| COc1cc(NN=C(C#N)C#N)ccc1OCc1ccc(C(F)(F)F)cc1 [Compound 155, (3-methoxy-4-(4-(trifluoromethyl)benzyloxy)phenyl)carbonohydrazonoyl dicyanide] | -43% | – | 80% | 95.4% | 82% | 90.8% |
| Cc1cc(NN=C(C#N)C#N)ccc1OCc1nc2ccccc2s1 [Compound 157, (4-(benzo[d]thiazol-2-ylmethoxy)-3-methylphenyl)carbonohydrazonoyl dicyanide] | 8% | – | 124% | 69.1% | 46% | 33.2% |
| COc1cc(NN=C(C#N)C#N)ccc1OCc1cc2ccccc2s1 [Compound 158, (4-(benzo[b]thiophen-2-ylmethoxy)-3-methoxyphenyl)carbonohydrazonoyl dicyanide] | -33% | 268 nM | 96% | 36.9% | 48.2% | 73.7% |
| COc1cc(NN=C(C#N)C#N)ccc1OCc1nc2ccccc2[nH]1 [Compound 163, (4-((1H-benzo[d]imidazol-2-yl)methoxy)-3-methoxyphenyl)carbonohydrazonoyl dicyanide] | 91% | – | 106% | 86.9% | 71.3% | 59.5% |
| COc1cc(NN=C(C#N)C#N)ccc1OCc1cccnn1 [Compound 164, (3-methoxy-4-(pyridazin-3-ylmethoxy)phenyl)carbonohydrazonoyl dicyanide] | -1% | 96 nM | 109% | 96.8% | 29.1% | 24.6% |
| COc1cc(NN=C(C#N)C#N)ccc1OCc1nc2ccccc2s1 [Compound 165, (4-(benzo[d]thiazol-2-ylmethoxy)-3-methoxyphenyl)carbonohydrazonoyl dicyanide] | -40% | – | 113% | 42.4% | 42.4% | 69.6% |
| COc1cc(NN=C(C#N)C#N)ccc1OCc1nc2ccccc2o1 [Compound 166, (4-(benzo[d]oxazol-2-ylmethoxy)-3-methoxyphenyl)carbonohydrazonoyl dicyanide] | -43% | 214 nM | 121% | 6.6% | 6.5% | 68.1% |
| COc1cc(NN=C(C#N)C#N)ccc1OCc1cc[nH]n1 [Compound 168, (4-((1H-pyrazol-3-yl)methoxy)-3-methoxyphenyl)carbonohydrazonoyl dicyanide] | -17% | 132 nM | 123% | 54.8% | 44% | 77.8% |
